Source: US9474744B2, “Beta-lactam compounds for treating diabetes” (STEM CELL MEDICINE LTD., priority 2011, dated 2016)

Columns and labels:
CD4+ human T cells = assay: Human Autoimmune and Inflammatory Response Gene Array, anti-CD3-stimulated T cells with or without antibiotic; assay type: cell-based; settings: 120 min anti-CD3; for % decrease by Cef: cefuroxime 50 μg/ml, ±SD, relative to control
Procedure: T cells were purified from the peripheral bloods of healthy human donors (Blood Bank, Sheba Medical center). The whole blood was incubated (20 min, 22° C.) with RosetteSep™ human T cell enrichment mixture (StemCell Technologies, Vancouver, Canada). The remaining unsedimented cells were then loaded onto lymphocyte separation medium (ICN Biomedicals, Irvine, Calif.), isolated by density centrifugation, and washed with PBS. […] In a second round of purification, CD3^+ T cells were labeled for selection with a magnetically coupled mAb against CD4 (Miltenyi Biotec, Auburn, Calif.).
Human CD4 T cells were isolated as described, and incubated in 24 well plates (Nunc), 4×10^6 cells/ml with plate bound anti-human CD3 (OKT3) at 2 μg/ml. The stimulation was performed in RPMI medium supplemented with 0.1% BSA. […] RNA was extracted from samples and used to prepare probes for gene array in accord with the manufacturer's instructions (SuperArray Bioscience, Frederick, Md.). Adequate labeling of the probes was tested before hybridization. Three healthy donors were tested in stimulation with cefuroxime. The membranes were analyzed online with the Image Data Acquisition and Expression Analysis (SuperArray Bioscience).
The Human Autoimmune and Inflammatory Response Gene Array (SuperArray Bioscience corporation, Frederick, Md., USA) was used for analysis of gene expression by the T cells. This array contains 367 genes including cytokines, chemokines and their receptors, transcription factors and signaling proteins. […] Analysis of the results was performed using the GEArray analysis program. […] To verify the results detected by the gene array study, a panel of six genes was designed and tested by real-time PCR: CCR4, ACVR2, JAK1, STAT4, TLR2 and NFKBIE. The cDNA that was used was prepared from the same RNA used for the gene array experiment.

[1] = system: encephalitogenic BP10 line; assay: Adoptive EAE: BP10 T-cell line stimulated in vitro with test substance, then injected into naive rats; assay type: in vivo, rat
Procedure: Antigen-specific T-cell lines were established from lymph node cells that had been stimulated with myelin basic protein (MBP; 10 μg/ml) for 3 days in stimulation medium as described below. Following stimulation, the T-cell blasts were isolated on LYMPHOPREP™ (Nycomed Pharma, Oslo, Norway) and seeded in propagation medium. Propagation medium was identical to stimulation medium without autologous serum, but supplemented with fetal calf serum 10% and T-cell growth factors from the supernatant of Con A stimulated spleen cells 10% (Mor et al. (1990) J Clin Invest, 85, 1594-1598). Animals were injected intra-peritoneally with 107 MBP-stimulated T cells, following 6-8 cycles of in vitro stimulations. It is known that MBP-reactive lines undergo a reduction in pathogenicity after 6 or more in vitro stimulations. In some experiments the BP10 line was stimulated with phorbol myristate acetate (PMA; 50 ng/ml) and ionomycin (500 ng/ml) for 3 days in stimulation medium, without antigen-presenting cells.
Active EAE was induced by subcutaneous injection of 25 μg guinea-pig MBP (GpMBP) in complete Freund's adjuvant (CFA). […] Adoptive EAE was transferred by intra-peritoneal injection of guinea-pig MBP-activated cells of the BP10 line as described in Mor et al. (1993) J Clin Invest, 92, 2199-2206. […] Clinical scoring was: +1, paralysis of tail; +1.5, paresis of posterior paws and ataxia; +2, paraplegia; +3, paralysis extending to thoracic spine; +4, a moribund state.
Treatment with cefuroxime in vivo could affect many different host agents involved in EAE or AA as well as influencing the rats' bacterial flora. To test whether the antibiotic might directly modify the behavior of effector T cells, an encephalitogenic T-cell line was stimulated in the presence or absence of cefuroxime in vitro. The weakly encephalitogenic BP10 line was used, and was stimulated for 3 days with MBP in the presence or absence of cefuroxime (50 μg/ml). The activated T cells were then washed to remove the antibiotic, the T cells were injected intra-peritoneally into naïve recipient rats (10^7 per rat), and EAE was scored. The BP10 line at later stimulations was used, when its pathogenic potential is reduced, allowing to detect both suppression and enhancement of disease. […] To rule out antigen presenting cells (APC) as the target of the beta-lactam antibiotic, the encephalitogenic BP10 line was stimulated without APC using PMA (50 ng/ml) and Ionomycin (500 ng/ml) in the presence or absence of cefuroxime.
Additional beta-lactam antibiotics were tested for their effect on the adoptive transfer of EAE.
A control group was injected with the untreated line.

## CO/N=C(\C(=O)N[C@@H]1C(=O)N2C(C(=O)O)=C(COC(N)=O)CS[C@H]12)c1ccco1 [cefuroxime]
CD4+ human T cells; array of 367 genes, 50 μg/ml
  number of genes down-regulated: Fifty-seven
CD4+ human T cells; gene ACTB
  % decrease by Cef: 49 ± 11%
CD4+ human T cells; gene ACVR1
  % decrease by Cef: 42 ± 0.7%
CD4+ human T cells; gene ACVR2
  % decrease by Cef: 60 ± 14.8%
CD4+ human T cells; gene CCL5
  % decrease by Cef: 21 ± 5.6%
CD4+ human T cells; gene CCL11
  % decrease by Cef: 18 ± 6.6%
CD4+ human T cells; gene CCR4
  % decrease by Cef: 39 ± 2%
CD4+ human T cells; gene CCR6
  % decrease by Cef: 53 ± 5.6%
CD4+ human T cells; gene CCR7
  % decrease by Cef: 38 ± 8.1%
CD4+ human T cells; gene CD28
  % decrease by Cef: 51 ± 2.1%
CD4+ human T cells; gene CD40LG
  % decrease by Cef: 33 ± 7.1%
CD4+ human T cells; gene CREB1
  % decrease by Cef: 19 ± 4.9%
CD4+ human T cells; gene CREBBP
  % decrease by Cef: 40 ± 9.9%
CD4+ human T cells; gene CXCL10
  % decrease by Cef: 39 ± 3%
CD4+ human T cells; gene EGR3
  % decrease by Cef: 38 ± 2.8%
CD4+ human T cells; gene GFI1
  % decrease by Cef: 45 ± 14%
CD4+ human T cells; gene HRAS
  % decrease by Cef: 30 ± 9.8%
CD4+ human T cells; gene IL1B
  % decrease by Cef: 54 ± 7.0%
CD4+ human T cells; gene IL2RB
  % decrease by Cef: 50 ± 9.9%
CD4+ human T cells; gene IL2RG
  % decrease by Cef: 57 ± 9.8%
CD4+ human T cells; gene IL9R
  % decrease by Cef: 27.5 ± 3%
CD4+ human T cells; gene IL16
  % decrease by Cef: 50 ± 7.8%
CD4+ human T cells; gene IRAK1
  % decrease by Cef: 44 ± 2.1%
CD4+ human T cells; gene JAK1
  % decrease by Cef: 53 ± 13.4%
CD4+ human T cells; gene JUN
  % decrease by Cef: 49 ± 2.2%
CD4+ human T cells; gene LTA
  % decrease by Cef: 17 ± 10%
CD4+ human T cells; gene MAP2K4
  % decrease by Cef: 52 ± 14.1%
CD4+ human T cells; gene MAP3K1
  % decrease by Cef: 53 ± 12%
CD4+ human T cells; gene MAP3K2
  % decrease by Cef: 36 ± 12%
CD4+ human T cells; gene MAP3K7
  % decrease by Cef: 46 ± 9.9%
CD4+ human T cells; gene MAPK9
  % decrease by Cef: 42 ± 10.9%
CD4+ human T cells; gene NFKB1
  % decrease by Cef: 43 ± 3.5%
CD4+ human T cells; gene NFKB2
  % decrease by Cef: 53 ± 10.6%
CD4+ human T cells; gene NFKBIE
  % decrease by Cef: 63 ± 11%
CD4+ human T cells; gene NFKBIL1
  % decrease by Cef: 54 ± 12.5%
CD4+ human T cells; gene PAK1
  % decrease by Cef: 40 ± 2.4%
CD4+ human T cells; gene PIN1
  % decrease by Cef: 45 ± 12.1%
CD4+ human T cells; gene RANBP5
  % decrease by Cef: 33 ± 3.5%
CD4+ human T cells; gene REL
  % decrease by Cef: 45 ± 1.9%
CD4+ human T cells; gene RFX5
  % decrease by Cef: 36 ± 4.2%
CD4+ human T cells; gene RFXAP
  % decrease by Cef: 27 ± 12%
CD4+ human T cells; gene SDF2
  % decrease by Cef: 28 ± 12%
CD4+ human T cells; gene SELL
  % decrease by Cef: 46 ± 7.0%
CD4+ human T cells; gene SMAD4
  % decrease by Cef: 47 ± 7.0%
CD4+ human T cells; gene SMAD7
  % decrease by Cef: 47 ± 4.2%
CD4+ human T cells; gene SP3
  % decrease by Cef: 39 ± 9.9%
CD4+ human T cells; gene SRF
  % decrease by Cef: 38 ± 1.9%
CD4+ human T cells; gene STAT1
  % decrease by Cef: 32 ± 11%
CD4+ human T cells; gene STAT4
  % decrease by Cef: 47 ± 9.3%
CD4+ human T cells; gene STAT6
  % decrease by Cef: 47 ± 7.9%
CD4+ human T cells; gene TGFBR3
  % decrease by Cef: 44 ± 3.5%
CD4+ human T cells; gene TGIF
  % decrease by Cef: 43 ± 3.5%
CD4+ human T cells; gene TLR2
  % decrease by Cef: 52 ± 14%
CD4+ human T cells; gene TNFRSF11
  % decrease by Cef: 43 ± 2%
CD4+ human T cells; gene TNFα
  % decrease by Cef: 29 ± 8.5%
CD4+ human T cells; gene TRAF5
  % decrease by Cef: 43 ± 2.2%
CD4+ human T cells; gene TRAF6
  % decrease by Cef: 43 ± 3.5%
CD4+ human T cells; gene YY1
  % decrease by Cef: 23 ± 9.1%
[1]; BP10 line stimulated 3 days with MBP in presence of 50 μg/ml antibiotic, 10^7 cells per rat
  severity of adoptive EAE in recipient rats: markedly enhanced the manifestations of EAE
[1]; BP10 line stimulated 3 days with MBP in presence of 50 μg/ml antibiotic, 10^7 cells per rat, listed as Cefuroxime
  severity of adoptive EAE in recipient rats: enhances the pathogenicity of the BP10 line
[1]; BP10 line stimulated without APC using PMA (50 ng/ml) and Ionomycin (500 ng/ml)
  severity of adoptive EAE in recipient rats: significantly more severe
[1]; dose-response, BP10 line stimulated with 5 μg/ml
  severity of adoptive EAE in recipient rats: ineffective
[1]; dose-response, BP10 line stimulated with 25 μg/ml
  severity of adoptive EAE in recipient rats: enhancing effect similar to that of 50 μg/ml
